Data taken from US20100152434A1, “Protein Kinase-binding Nucleosides and Associated Methods” (priority 2007, published 2010).

How the values were obtained:
BTK [1] = biological target: T1, BTK (Homo sapiens, UniProt Q06187); assay: SignalChem radioisotope protein kinase assay; type: biochemical; design: host or cells: T7 phage in an E. coli BL21-derived host; details: 5 μl of 100 μM stock solution in 25 μl
Source text: The various protein kinase targets to be employed in the kinase profiling assay were cloned, expressed and purified in-house at SignalChem (Richmond, BC, Canada) using proprietary methods. Quality control testing is routinely performed on each of the SignalChem targets to ensure compliance to acceptable standards. Protein substrates employed in the target profiling process were synthesized internally. ^33P-ATP was purchased from PerkinElmer. All other materials were of standard grade. Compound 10 (FIG. 4) was supplied to SignalChem in a powder form. It was reconstituted in DMSO to form a stock solution which was then diluted with 10% DMSO to form a working stock solution (100 μM) that was then profiled against the various protein kinase targets. The assay conditions for the various protein kinase targets were optimized to yield acceptable enzymatic activity. In addition, the assays were optimized to give high signal-to-noise ratio. […]
The assay was initiated by the addition of ^33P-ATP and the reaction mixture incubated at ambient temperature for 20-40 minutes, depending on the protein kinase target. […] The radioactivity on the P81 plate was counted in the presence of scintillation fluid in a Trilux scintillation counter. […] The corrected activity for each protein kinase target was determined by removing the blank control value.

EGFR = EGFR (Homo sapiens, UniProt P00533); assay: Ambit kinase phage display ATP-binding-site ligand binding assay; details: read-out: % Inhibition of binding to ATP-binding-site ligand
Source text: (§1) This assay is based on ligand-affinity/protein kinase phage display and was employed essentially as described by Fabian et. al [Nature Biotech. […] In this assay, protein kinases are cloned into T7 bacteriophage which express the kinase fusion proteins on the phage capsid. T7 kinase-tagged phage are then screened for binding to ATP-binding-site ligands that have been immobilized on a solid support. Phage are screened for binding to the anchored ligands both in the presence of test compound and in its absence (control). Elution of the bound phage by free ligand (ATP-binding site ligand that is not immobilized on a solid support) followed by determination of the phage titre provides a reliable measure of the ability of test compounds to block binding of target kinases to resin-bound ATP-binding-site ligands.
(§2) T7 kinase-tagged phage strains were grown in parallel in microtiter plates in a proprietary bacterial host derived from E. Coli strain BL21. E. Coli were grown to a log phase, infected with T7 kinase-tagged phage, and incubated while shaking at 32° C. until bacterial lysis (approx. 90 min). Lysates were centrifuged (6,000 g) and filtered (0.2 μm). […] The phage titre of the eluates was measured by quantitative PCR or by plaque assays. […]

TYK2 = TYK2 (Homo sapiens, UniProt P29597); assay: as above; details: read-out: % Inhibition of binding to ATP-binding-site ligand
Source text: as §1, §2

FLT3 = FLT3 (Homo sapiens, UniProt P36888); assay: as above; details: read-out: % Inhibition of binding to ATP-binding-site ligand
Source text: as §1, §2

BTK [2] = biological target: T1, BTK; assay: as above; details: read-out: % Inhibition of binding to ATP-binding-site ligand
Source text: (§3) In this assay, protein kinases are cloned into T7 bacteriophage which express the kinase fusion proteins on the phage capsid. T7 kinase-tagged phage are then screened for binding to ATP-binding-site ligands that have been immobilized on a solid support. Phage are screened for binding to the anchored ligands both in the presence of test compound and in its absence (control). Elution of the bound phage by free ligand (ATP-binding site ligand that is not immobilized on a solid support) followed by determination of the phage titre provides a reliable measure of the ability of test compounds to block binding of target kinases to resin-bound ATP-binding-site ligands.
(§4) T7 kinase-tagged phage strains were grown in parallel in microtiter plates in a proprietary bacterial host derived from E. Coli strain BL21. E. Coli were grown to a log phase, infected with T7 kinase-tagged phage, and incubated while shaking at 32° C. until bacterial lysis (approx. 90 min). Lysates were centrifuged (6,000 g) and filtered (0.2 μm). Small molecule ATP-binding-site-specific ligands were anchored to solid supports via a two step process beginning with biotin conjugation followed by treatment of the biotin/small molecule conjugate with streptavidin-coated magnetic beads. […] The phage titre of the eluates was measured by quantitative PCR or by plaque assays. […]

CSNK1G2 = CSNK1G2 (Homo sapiens, UniProt P78368); assay: as above; details: read-out: % Inhibition of binding to ATP-binding-site ligand
Source text: as §3, §4

RPS6KA2 = RPS6KA2 (Homo sapiens, UniProt Q15349); assay: as above; details: read-out: percent inhibition of binding
Source text: as §1, §2

EPHA5 = EPHA5 (Homo sapiens, UniProt P54756); assay: as above; details: read-out: percent inhibition of binding
Source text: as §3, §4

CLK4 = CLK4 (Homo sapiens, UniProt Q9HAZ1); assay: as above; details: read-out: percent inhibition of binding
Source text: as §3, §4

SNF1LK = SNF1LK (Homo sapiens, UniProt P57059); assay: as above; details: read-out: percent inhibition of binding
Source text: as §3, §4

ERK2 = ERK2 (Homo sapiens, UniProt P28482); assay: as above; details: read-out: percent inhibition of binding
Source text: as §3, §4

EGFR(L747-T751del,Sins) = EGFR(L747-T751del,Sins) (Homo sapiens, UniProt P00533, DEL747-750/T751S); assay: as above; details: read-out: percent inhibition of binding
Source text: as §1, §2

CDK3 = CDK3 (Homo sapiens, UniProt Q00526); assay: as above; details: read-out: percent inhibition of binding
Source text: as §1, §2

PIK3CG = PIK3CG (Homo sapiens, UniProt P48736); assay: as above; details: read-out: percent inhibition of binding
Source text: as §1, §2

RPS6KA6(kin.Dom.2) = RPS6KA6(kin.Dom.2) (Homo sapiens, UniProt Q9UK32); assay: as above; details: read-out: percent inhibition of binding
Source text: as §1, §2

PHKG2 = PHKG2 (Homo sapiens, UniProt P15735); assay: as above; details: read-out: percent inhibition of binding
Source text: as §1, §2

CAMKK2 = CAMKK2 (Homo sapiens, UniProt Q96RR4); assay: as above; details: read-out: percent inhibition of binding
Source text: as §3, §4

TYK2(Kin.Dom.1) = TYK2(Kin.Dom.1) (Homo sapiens, UniProt P29597); assay: as above; details: read-out: percent inhibition of binding
Source text: as §3, §4

p38-beta = p38-beta (Homo sapiens, UniProt Q15759); assay: as above; details: read-out: percent inhibition of binding
Source text: as §3, §4

MDA-MB-468 = assay: NCI 60 in vitro screen (SRB), Breast Cancer; type: cell-based, human
Experimental: Mean ODtzero=The average of optical density measurements SRB-derived color just before exposure of cells to the test compound. Mean ODtest=The average of optical density measurement of SRB-derived color after 48 hours exposure of cells to the test compound. Mean ODctrl=The average of optical density measurements of SRB-derived color after 48 hours with no exposure of cells to the test compound.

T1 sequence (Q06187 whole entry, species assumed): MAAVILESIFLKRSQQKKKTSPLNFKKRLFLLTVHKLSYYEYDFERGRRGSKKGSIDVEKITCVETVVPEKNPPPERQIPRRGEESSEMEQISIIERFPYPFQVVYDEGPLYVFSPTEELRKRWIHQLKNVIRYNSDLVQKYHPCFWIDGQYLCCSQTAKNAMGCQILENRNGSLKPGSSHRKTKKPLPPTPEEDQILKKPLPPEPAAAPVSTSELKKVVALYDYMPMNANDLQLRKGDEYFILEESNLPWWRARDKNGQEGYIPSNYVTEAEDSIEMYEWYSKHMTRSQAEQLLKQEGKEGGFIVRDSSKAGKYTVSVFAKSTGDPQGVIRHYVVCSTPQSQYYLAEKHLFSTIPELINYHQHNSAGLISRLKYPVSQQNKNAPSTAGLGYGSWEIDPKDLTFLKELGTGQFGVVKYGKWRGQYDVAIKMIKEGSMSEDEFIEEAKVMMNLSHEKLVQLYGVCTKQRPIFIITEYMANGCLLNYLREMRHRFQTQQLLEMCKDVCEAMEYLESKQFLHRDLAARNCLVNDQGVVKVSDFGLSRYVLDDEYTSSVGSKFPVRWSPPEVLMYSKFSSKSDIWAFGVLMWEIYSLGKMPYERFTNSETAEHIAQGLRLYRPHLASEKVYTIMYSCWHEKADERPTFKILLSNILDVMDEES
Chain of FLT3 (P36888 27-993, species assumed): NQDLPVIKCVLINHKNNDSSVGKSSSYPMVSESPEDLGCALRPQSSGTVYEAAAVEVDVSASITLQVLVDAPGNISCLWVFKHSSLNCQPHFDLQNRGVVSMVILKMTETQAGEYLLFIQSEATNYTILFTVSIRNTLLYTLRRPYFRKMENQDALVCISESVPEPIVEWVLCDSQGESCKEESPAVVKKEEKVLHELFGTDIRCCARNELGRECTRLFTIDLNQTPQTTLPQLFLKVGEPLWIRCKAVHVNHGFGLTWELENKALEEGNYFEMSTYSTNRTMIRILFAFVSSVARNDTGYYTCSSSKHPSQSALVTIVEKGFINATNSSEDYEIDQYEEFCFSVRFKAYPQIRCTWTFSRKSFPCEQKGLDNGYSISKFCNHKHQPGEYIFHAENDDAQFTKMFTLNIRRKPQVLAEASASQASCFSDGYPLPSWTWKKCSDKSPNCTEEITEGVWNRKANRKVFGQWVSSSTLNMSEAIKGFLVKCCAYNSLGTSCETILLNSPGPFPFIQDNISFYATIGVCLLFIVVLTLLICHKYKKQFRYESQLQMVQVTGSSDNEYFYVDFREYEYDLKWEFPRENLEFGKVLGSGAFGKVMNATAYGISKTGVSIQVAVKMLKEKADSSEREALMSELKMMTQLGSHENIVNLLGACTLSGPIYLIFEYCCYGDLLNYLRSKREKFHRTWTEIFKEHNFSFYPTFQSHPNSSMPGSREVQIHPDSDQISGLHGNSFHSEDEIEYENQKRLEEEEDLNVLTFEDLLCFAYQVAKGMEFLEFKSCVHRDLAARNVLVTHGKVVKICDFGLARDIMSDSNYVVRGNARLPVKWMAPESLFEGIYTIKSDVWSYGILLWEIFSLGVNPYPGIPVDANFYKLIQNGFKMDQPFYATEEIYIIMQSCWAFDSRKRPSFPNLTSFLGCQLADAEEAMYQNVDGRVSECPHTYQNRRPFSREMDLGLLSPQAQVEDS
Chain of EGFR(L747-T751del,Sins) (P00533 with tags, fused parts or gaps DEL747-750/T751S limits assumed): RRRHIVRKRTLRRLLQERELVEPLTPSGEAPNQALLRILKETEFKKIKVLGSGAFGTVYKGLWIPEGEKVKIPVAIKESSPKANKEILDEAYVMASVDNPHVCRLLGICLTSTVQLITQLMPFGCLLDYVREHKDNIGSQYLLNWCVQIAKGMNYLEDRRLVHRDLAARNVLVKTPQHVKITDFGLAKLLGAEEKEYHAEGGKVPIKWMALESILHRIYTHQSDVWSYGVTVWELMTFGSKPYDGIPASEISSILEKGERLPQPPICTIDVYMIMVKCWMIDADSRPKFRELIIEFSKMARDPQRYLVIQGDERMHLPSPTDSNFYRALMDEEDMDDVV
Chain of p38-beta (Q15759 whole entry): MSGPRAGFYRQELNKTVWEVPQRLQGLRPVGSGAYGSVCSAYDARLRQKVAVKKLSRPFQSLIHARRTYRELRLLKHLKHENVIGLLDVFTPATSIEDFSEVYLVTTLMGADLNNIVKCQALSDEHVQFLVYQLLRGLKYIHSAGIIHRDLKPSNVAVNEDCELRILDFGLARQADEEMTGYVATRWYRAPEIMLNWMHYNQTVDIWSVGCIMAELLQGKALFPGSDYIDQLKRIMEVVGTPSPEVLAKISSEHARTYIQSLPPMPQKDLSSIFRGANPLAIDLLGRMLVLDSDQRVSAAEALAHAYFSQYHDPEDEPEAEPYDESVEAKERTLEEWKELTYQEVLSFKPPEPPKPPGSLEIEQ
Chain of PHKG2 (P15735 whole entry): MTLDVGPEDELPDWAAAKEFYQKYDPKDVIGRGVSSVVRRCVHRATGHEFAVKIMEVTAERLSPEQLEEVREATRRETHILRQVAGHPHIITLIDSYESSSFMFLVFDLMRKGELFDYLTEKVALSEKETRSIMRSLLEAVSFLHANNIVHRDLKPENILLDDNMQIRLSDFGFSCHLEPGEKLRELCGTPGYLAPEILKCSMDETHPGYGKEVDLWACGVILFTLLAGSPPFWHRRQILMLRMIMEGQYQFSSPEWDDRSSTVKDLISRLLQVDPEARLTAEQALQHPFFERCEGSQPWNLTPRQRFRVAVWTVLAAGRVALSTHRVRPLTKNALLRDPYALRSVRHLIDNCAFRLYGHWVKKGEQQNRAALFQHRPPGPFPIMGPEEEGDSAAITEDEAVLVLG
Chain of CSNK1G2 (P78368 whole entry): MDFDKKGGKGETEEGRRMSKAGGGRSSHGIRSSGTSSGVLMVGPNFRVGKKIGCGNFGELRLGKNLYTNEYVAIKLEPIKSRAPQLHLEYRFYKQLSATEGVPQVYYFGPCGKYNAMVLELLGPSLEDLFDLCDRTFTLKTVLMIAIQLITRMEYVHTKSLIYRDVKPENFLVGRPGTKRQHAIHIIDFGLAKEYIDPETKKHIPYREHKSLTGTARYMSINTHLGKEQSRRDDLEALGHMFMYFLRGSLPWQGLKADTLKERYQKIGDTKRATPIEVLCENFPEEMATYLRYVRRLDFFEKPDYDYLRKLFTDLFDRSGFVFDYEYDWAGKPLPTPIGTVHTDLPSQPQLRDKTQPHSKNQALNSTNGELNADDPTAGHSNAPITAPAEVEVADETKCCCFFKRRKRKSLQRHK
Chain of CDK3 (Q00526 whole entry): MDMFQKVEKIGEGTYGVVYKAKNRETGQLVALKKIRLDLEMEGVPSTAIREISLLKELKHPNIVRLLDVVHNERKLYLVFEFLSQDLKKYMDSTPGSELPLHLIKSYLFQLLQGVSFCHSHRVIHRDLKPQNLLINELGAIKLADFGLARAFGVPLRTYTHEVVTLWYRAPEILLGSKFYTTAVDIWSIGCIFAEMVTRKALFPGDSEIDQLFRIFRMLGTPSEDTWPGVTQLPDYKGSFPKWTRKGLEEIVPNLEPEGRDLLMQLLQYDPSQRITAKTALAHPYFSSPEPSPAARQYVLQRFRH
Chain of RPS6KA6(kin.Dom.2) (Q9UK32 426-683 limits assumed): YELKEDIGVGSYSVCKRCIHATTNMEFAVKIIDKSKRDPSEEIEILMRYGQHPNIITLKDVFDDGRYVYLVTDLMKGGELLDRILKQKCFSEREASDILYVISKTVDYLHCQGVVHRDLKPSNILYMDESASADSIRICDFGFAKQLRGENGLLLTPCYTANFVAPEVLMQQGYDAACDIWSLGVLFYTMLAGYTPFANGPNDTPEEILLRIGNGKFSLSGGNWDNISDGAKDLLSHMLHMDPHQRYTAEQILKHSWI
Chain of PIK3CG (P48736 whole entry): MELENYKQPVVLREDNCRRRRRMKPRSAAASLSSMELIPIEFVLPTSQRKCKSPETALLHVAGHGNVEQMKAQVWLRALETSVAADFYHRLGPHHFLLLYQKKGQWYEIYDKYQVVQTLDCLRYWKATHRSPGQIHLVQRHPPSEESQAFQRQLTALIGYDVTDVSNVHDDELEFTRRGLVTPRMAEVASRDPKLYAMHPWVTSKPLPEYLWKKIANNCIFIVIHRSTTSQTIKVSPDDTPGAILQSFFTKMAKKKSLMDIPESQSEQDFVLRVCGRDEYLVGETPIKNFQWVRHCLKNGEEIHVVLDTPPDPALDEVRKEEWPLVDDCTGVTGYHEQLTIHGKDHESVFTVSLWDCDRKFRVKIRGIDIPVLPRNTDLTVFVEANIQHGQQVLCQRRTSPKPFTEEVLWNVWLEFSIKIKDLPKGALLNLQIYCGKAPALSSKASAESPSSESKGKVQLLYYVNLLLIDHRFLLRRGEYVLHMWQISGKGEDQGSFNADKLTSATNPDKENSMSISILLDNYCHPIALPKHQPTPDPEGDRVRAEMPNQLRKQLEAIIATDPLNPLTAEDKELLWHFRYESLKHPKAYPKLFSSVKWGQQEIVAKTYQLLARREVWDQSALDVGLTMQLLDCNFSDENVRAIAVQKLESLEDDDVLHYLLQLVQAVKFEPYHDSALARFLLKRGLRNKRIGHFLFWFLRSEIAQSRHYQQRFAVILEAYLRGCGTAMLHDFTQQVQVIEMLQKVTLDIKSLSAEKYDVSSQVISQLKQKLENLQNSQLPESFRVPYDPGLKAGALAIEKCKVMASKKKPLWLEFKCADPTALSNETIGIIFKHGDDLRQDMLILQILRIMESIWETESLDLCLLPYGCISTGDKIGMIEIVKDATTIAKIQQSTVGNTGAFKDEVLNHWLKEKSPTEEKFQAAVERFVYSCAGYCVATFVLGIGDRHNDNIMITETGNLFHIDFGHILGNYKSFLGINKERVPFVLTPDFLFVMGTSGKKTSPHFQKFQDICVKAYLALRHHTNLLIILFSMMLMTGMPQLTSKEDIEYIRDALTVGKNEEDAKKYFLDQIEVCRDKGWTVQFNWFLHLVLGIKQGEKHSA

CCOC(=O)C[C@@H]1C(O[Si](C)(C)C(C)(C)C)[C@H](n2cnc3c(NC(=O)Nc4ccccc4)ncnc32)O[C@@H]1CNC(=O)NC (stereo partly drawn) [Compound 10]
% Activity Change (BTK [1]): 10% | inhibition at 10 µM (EGFR): 30% | inhibition at 10 µM (TYK2): 31% | inhibition at 10 µM (FLT3): 31% | inhibition at 10 µM (BTK [2]): 35% | inhibition at 10 µM (CSNK1G2): 38% | inhibition at 10 µM (RPS6KA2): 20 to 29% | inhibition at 10 µM (EPHA5): 20 to 29% | inhibition at 10 µM (CLK4): 20 to 29% | inhibition at 10 µM (SNF1LK): 20 to 29% | inhibition at 10 µM (ERK2): 20 to 29% | inhibition at 10 µM (EGFR(L747-T751del,Sins)): 20 to 29% | inhibition at 10 µM (CDK3): 20 to 29% | inhibition at 10 µM (PIK3CG): 20 to 29% | inhibition at 10 µM (RPS6KA6(kin.Dom.2)): 20 to 29% | inhibition at 10 µM (PHKG2): 20 to 29% | inhibition at 10 µM (CAMKK2): 20 to 29% | inhibition at 10 µM (TYK2(Kin.Dom.1)): 20 to 29% | inhibition at 10 µM (p38-beta): 20 to 29%

CNC(=O)NC[C@H]1O[C@@H](n2cnc3c(NC(=O)Nc4ccccc4)ncnc32)C(O[Si](C)(C)C(C)(C)C)[C@H]1O[Si](C)(C)C(C)(C)C (stereo partly drawn) [Compound 25, 2′,3′-Bis-O-(tert-butyldimethylsilyl)-5-deoxy-5′-[(N-methylcarbamoyl)amino]-N^6-(N-phenylcarbamoyl)adenosine]
TGI (MDA-MB-468): 1.39E−5 Molar | GI50 (MDA-MB-468; Homo sapiens): 3.35 µM | IC50 (MDA-MB-468; Homo sapiens): > 100 µM | Percent Growth (MDA-MB-468; Log10 Concentration −4.0 Molar): −35% | Percent Growth (MDA-MB-468; Log10 Concentration −5.0 Molar): 5% | Percent Growth (MDA-MB-468; Log10 Concentration −6.0 Molar): 99% | Percent Growth (MDA-MB-468; Log10 Concentration −7.0 Molar): 104% | Percent Growth (MDA-MB-468; Log10 Concentration −8.0 Molar): 101%
